Test results as given in ChEMBL document CHEMBL4699607, “Design, synthesis, and computational validation of novel compounds selectively targeting HER2-expressing breast cancer” (Bioorg Med Chem Lett, 2020).
Activity calls are given as the source filed them. No cut-off for these calls is given here.

How the values were obtained:
MCF7 [1] = assay: Cytotoxicity against human MCF-7 assessed as reduction cell viability at 10 uM by SRB assay; format: functional
MDA-MB-231 = assay: Cytotoxicity against human MDA-MB-231 cells assessed as reduction in cell viability at 10 uM by SRB assay; format: functional, cell-based
SK-BR-3 [2] = assay: Cytotoxicity against human SKBr3 assessed as reduction cell viability at 10 uM by SRB assay; format: functional
SK-BR-3 [3] = assay: Cytotoxicity against human SKBr3 assessed as reduction in cell viability by SRB assay
[4] = molecular target: Receptor tyrosine-protein kinase erbB-2 (Homo sapiens) (UniProt P04626); assay: Inhibition of HER2 (unknown origin) at 10 uM by ELISA
Sequence of Receptor tyrosine-protein kinase erbB-2 (Homo sapiens) (P04626 whole entry): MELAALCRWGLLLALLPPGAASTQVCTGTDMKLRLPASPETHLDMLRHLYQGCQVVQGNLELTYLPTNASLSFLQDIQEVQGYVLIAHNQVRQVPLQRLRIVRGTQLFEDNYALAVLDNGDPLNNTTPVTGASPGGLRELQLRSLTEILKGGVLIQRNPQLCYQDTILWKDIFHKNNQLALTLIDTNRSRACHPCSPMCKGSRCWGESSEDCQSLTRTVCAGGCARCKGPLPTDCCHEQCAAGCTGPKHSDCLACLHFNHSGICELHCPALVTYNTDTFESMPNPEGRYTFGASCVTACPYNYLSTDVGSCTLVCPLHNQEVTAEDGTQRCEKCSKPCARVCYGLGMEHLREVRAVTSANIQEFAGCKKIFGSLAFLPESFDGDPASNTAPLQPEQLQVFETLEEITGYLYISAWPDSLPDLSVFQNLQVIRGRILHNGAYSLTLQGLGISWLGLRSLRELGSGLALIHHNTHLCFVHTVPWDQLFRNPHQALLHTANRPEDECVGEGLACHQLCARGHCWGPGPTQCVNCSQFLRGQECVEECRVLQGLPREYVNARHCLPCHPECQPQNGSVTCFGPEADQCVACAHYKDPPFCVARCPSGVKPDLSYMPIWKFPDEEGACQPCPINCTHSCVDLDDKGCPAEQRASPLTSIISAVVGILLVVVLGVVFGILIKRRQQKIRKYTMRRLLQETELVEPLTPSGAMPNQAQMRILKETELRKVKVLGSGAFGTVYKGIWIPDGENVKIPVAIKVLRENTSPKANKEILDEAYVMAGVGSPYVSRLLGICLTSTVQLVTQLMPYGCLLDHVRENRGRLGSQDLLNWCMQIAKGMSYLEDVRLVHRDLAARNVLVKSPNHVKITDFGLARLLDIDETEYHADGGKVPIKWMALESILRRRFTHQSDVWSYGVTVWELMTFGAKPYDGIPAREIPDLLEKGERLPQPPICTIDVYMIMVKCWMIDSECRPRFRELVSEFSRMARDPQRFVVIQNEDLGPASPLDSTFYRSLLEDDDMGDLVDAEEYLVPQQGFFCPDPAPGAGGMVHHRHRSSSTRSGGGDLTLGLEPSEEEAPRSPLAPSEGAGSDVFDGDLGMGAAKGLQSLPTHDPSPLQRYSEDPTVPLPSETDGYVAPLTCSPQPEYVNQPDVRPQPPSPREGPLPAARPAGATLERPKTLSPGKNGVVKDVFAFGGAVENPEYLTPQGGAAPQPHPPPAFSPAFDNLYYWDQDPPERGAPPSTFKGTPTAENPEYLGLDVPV

MCF7 [5] = assay: Cytotoxicity against human MCF-7 assessed as reduction in cell viability by SRB assay

## Cc1ccc(S(=O)(=O)NC(=O)Nc2ncccc2Br)cc1
MCF7 [1]
  inhibition at 10 µM: 11.2%
MDA-MB-231
  inhibition: inactive

## S=C(NCCc1ccccc1)Nc1ncccc1Br
MCF7 [1]
  inhibition at 10 µM: 63%
SK-BR-3 [2]
  inhibition at 10 µM: 78.8%
SK-BR-3 [3]
  IC50: 1110 nM
MDA-MB-231
  inhibition: inactive
[4]
  inhibition: 84.7%
MCF7 [5]
  IC50: 16200 nM

## COc1ccccc1CNC(=O)NS(=O)(=O)c1ccccc1
MCF7 [1]
  inhibition at 10 µM: 10.3%
MDA-MB-231
  inhibition: inactive

## S=C(Nc1ccc(Cl)cc1Br)Nc1ncccc1Br
MCF7 [1]
  inhibition at 10 µM: 64.1%
SK-BR-3 [2]
  inhibition at 10 µM: 74.8%
SK-BR-3 [3]
  IC50: 3400 nM
MDA-MB-231
  inhibition: inactive
[4]
  inhibition: 82.6%
MCF7 [5]
  IC50: 2500 nM

## S=C(Nc1ccc(Cl)cc1Cl)Nc1ncccc1Br
MCF7 [1]
  inhibition at 10 µM: 72.4%
SK-BR-3 [2]
  inhibition at 10 µM: 79.7%
SK-BR-3 [3]
  IC50: 730 nM
MDA-MB-231
  inhibition: inactive
[4]
  inhibition: 87%
MCF7 [5]
  IC50: 1300 nM
